≈ marks a conversion by molar mass, not a printed value.

The subject of one data set is PANC-1 cells. The experiment in a line: Oxygen consumption rate of PANC-1 cells (OCR Assay Kit). The class given is cell-based, human. The following applies: PANC-1 cells in General Glucose Medium, phosphorescent probe, 180 min. As for the experimental part: Oxygen consumption rate of PANC-1 cells was assayed using OCR Assay Kit (Cayman Chemical, Ann Arbor, MI, USA) as per the manufacturer’s instructions. Briefly, pre-cultured PANC-1 cells (8.0 × 10^4 cells) in the black, clear bottom 96-well plate (Corning Incorporated, NY, USA) were incubated with General Glucose Medium for 18 h at 37 °C. The cells were replenished with 140 µl of fresh medium, and the test compound was added. This was followed by adding the phosphorescent probe to measure the oxygen consumption. 100 µl of mineral oil was added in each well to restrict oxygen diffusion. The signals were measured by an Infinite M1000 microplate reader (Tecan Group Ltd., Mannedorf, Switzerland) using time-resolved mode at Ex 380 nm and Em 650 nm for 180 min with 1-min time interval. The linear regression was applied after subtracting the blank, and the oxygen consumption rate was indicated by the slope of each signal profile.

The test system of data set [1] is human pancreatic carcinoma PANC-1 cells. The experiment in a line: Cytotoxicity (WST-8) against PANC-1 cells in Glucose Deficient or General Glucose Medium. Format: cell-based. The following applies: for IC50: Homo sapiens; for IC50 / IC50 Glucose (−): PANC-1 cells, 12 h with sample, WST-8; for S.I. (Selective index): IC50 General Glucose Medium versus IC50 Glucose Deficient Medium, PANC-1. As for the experimental part:
Human pancreatic carcinoma cell line PANC-1 was maintained in the DMEM supplemented with heat-inactivated 10% FBS and kanamycin (50 µg/ml) in a humidified atmosphere with 5% CO2 at 37 °C. To induce nutrient starvation, PANC-1 cells were cultured in the Glucose Deficient Medium [Basal Medium (25 mM HEPES buffer (pH 7.4) supplemented with 6.4 g/l NaCl, 700 mg/l NaHCO3, 400 mg/l KCl, 265 mg/l CaCl2·2H2O, 200 mg/l MgSO4·7H2O, 125 mg/l NaH2PO4, 0.1 mg/l Fe(NO3)·9H2O, 15 mg/l Phenol red, 10 mL/l MEM vitamin solution (X100) (GIBCO, Carlsbad, CA), 200 mmol/l L-glutamine solution (GIBCO, Carlsbad, CA), and 25 mg/l kanamycin) containing 10% dialyzed FBS]. The General Glucose Medium [Basal Medium supplemented with 10% FBS and […] glucose (final 25 mM)] was also used for control cells.
The bioassay was carried out according to a method described previously. Briefly, PANC-1 cells (1 × 10^4 cells/100 µl in 96 well plastic plate) were pre-incubated in the DMEM supplemented with 10% FBS for 24 h. The medium was then replaced with either the General Glucose Medium or Glucose Deficient Medium to induce cells adaption to the nutrient starvation. After 12-h incubation, the serially diluted samples were added, and the cells were incubated for an additional 12 h in a humidified atmosphere with 5% CO2 at 37 °C. The cell proliferation was detected using the WST-8 colorimetric reagent. The IC50 value was determined by linear interpolation from the growth inhibition curve. We assessed the selectivity of the cytotoxic activity (Selective Index, S.I.) based on the difference in the IC50 values obtained for experiments with General Glucose Media and Glucose Deficient Media.
On the technique in general: Tetrazolium assays rely on reduction of a dye to a coloured formazan, in cell work by metabolically active cells.

In data set [2] the test system is Akt and phosphorylated Akt. Nature of the data set: Western blotting, Akt signaling in PANC-1 cells. Format: cell-based, human. The following applies: PANC-1 in Glucose Deficient Medium, 0.02–0.3 µM, 12 h, western blot. How it is done: (§1) PANC-1 cells (3 × 10^5 cells/2 ml in 6-well plastic plate) were pre-incubated in the DMEM supplement with 10% FBS for 24 h. The medium was then replaced with either General Glucose or Glucose Deficient Medium. […] Subsequently, the cells were rinsed with ice-cold PBS and lysed in the lysis buffer [50 mM Tris–HCl (pH 8.0) containing 150 mM NaCl, 5 mM EDTA, 1% glycerol, 1% NP-40, 1% protease inhibitor cocktail, and 1% phosphatase inhibitor cocktail]. The cell lysate was analyzed by SDS-PAGE and transferred onto PVDF membranes (GE Healthcare Life Sciences Buckinghamshire, UK). The membranes were then incubated with appropriate primary antibodies followed by HRP-conjugated secondary antibodies, and the immunopositive bands were visualized using an ECL kit (GE Healthcare Life Sciences). The luminescent signals were analyzed using an Image Quant LAS4010 Scanner (GE Healthcare Life Sciences).
For orientation: In western blotting, separated proteins are transferred to a membrane and probed.

Data set [3] addresses mitochondrial Complex II/III (Bos taurus, UniProt P00125+P00157+P13272). The experiment in a line: Mito Check Complex Activity Assay Kit, complex II/III. The following applies: mitochondrial electron transport chain. The class given is biochemical. The source says: (§2) Dulbecco’s Modified Eagle’s medium (DMEM), WST-8 colorimetric reagent, and KCN were purchased from Nacalai Tesque, Inc. (Kyoto, Japan). Fetal bovine serum (FBS) and Dialyzed FBS were purchased from Equitech-Bio Inc. (Kerrville, TX, USA) and Thermo Fisher Scientific Inc. (Waltham, MA, USA), respectively. Anti-Akt, Anti-phosphorylated Akt, anti-GRP78, and anti-β-actin antibodies were obtained from Cell Signaling Technology, Inc. (Danvers, MA, USA). Horseradish peroxidase (HRP)-linked anti-rabbit IgG antibody (GE Healthcare Life Sciences, Buckinghamshire, UK) was used as secondary antibody. Mito Check Complex Activity Assay Kit (Cayman Chemical, Ann Arbor, MI, USA) was used to evaluate the effect of compound 1 on the mitochondrial complex I–V. Oxygen consumption of cells was measured by Oxygen Consumption Rate (OCR) Assay Kit (Cayman Chemical, Ann Arbor, MI, USA). Rotenone, thenoyltrifluoroacetone (TTFA), carbonyl cyanide m-chlorophenylhydrazone (CCCP), antimycin A, and oligomycin A were obtained from Tokyo Chemical Industry Co., LTD. […]
(§3) Antimycin A is a known inhibitor of complex III in the mitochondrial electron transport chain [17]. […] We also evaluated the effect of compound 1 on the oxygen consumption of PANC-1 cells cultured in the Glucose Deficient Medium.

Another data set addresses mitochondrial Complex I (Bos taurus, UniProt P03887+P17694+P42026). Nature of the data set: biochemical. Particulars: mitochondrial electron transport chain.
The next data set has as its target mitochondrial Complex V (Bos taurus, UniProt P00829+P00847+P19483+P32876). Nature of the data set: Mito Check Complex Activity Assay Kit, complex V. The following applies: mitochondrial electron transport chain. Format: biochemical.
From the text: as §2, §3

Another data set relates to GRP78. The experiment in a line: Western blotting, induction of GRP78 in PANC-1 cells. Format: cell-based, human. The following applies: PANC-1 in Glucose Deficient Medium, lowest test concentration 0.02 µM, 12 h, western blot. As for the experimental part:
as §1

The target in the next data set is mitochondrial Complex IV (Bos taurus, UniProt P00396+P68530). Nature of the data set: Mito Check Complex Activity Assay Kit, complex IV. Format: biochemical. Particulars: mitochondrial electron transport chain.
From the text: as §2, §3

Data set [4] concerns human leukemic Jurkat cell line. The following applies: read-out: IC50 cytotoxicity Jurkat; cited from earlier work.
Data set [5] deals with human cervix epithelioid carcinoma HeLa cells. The following applies: cited from earlier work.
The target of a further data set is T1, mitochondrial Complex II (Bos taurus, UniProt P31039+P35720+Q3T189+Q95123).
T1 construct: purchased Cayman Chemical
The experiment in a line: Mito Check Complex Activity Assay Kit, complex II. The class given is biochemical. The following applies: mitochondrial electron transport chain.
From the text: as §2, §3

For data set [6], the system named is rat adrenal pheochromocytoma cell line PC12. Particulars: PC12 cells, cited from earlier work.

T1 sequence (P31039 44-665): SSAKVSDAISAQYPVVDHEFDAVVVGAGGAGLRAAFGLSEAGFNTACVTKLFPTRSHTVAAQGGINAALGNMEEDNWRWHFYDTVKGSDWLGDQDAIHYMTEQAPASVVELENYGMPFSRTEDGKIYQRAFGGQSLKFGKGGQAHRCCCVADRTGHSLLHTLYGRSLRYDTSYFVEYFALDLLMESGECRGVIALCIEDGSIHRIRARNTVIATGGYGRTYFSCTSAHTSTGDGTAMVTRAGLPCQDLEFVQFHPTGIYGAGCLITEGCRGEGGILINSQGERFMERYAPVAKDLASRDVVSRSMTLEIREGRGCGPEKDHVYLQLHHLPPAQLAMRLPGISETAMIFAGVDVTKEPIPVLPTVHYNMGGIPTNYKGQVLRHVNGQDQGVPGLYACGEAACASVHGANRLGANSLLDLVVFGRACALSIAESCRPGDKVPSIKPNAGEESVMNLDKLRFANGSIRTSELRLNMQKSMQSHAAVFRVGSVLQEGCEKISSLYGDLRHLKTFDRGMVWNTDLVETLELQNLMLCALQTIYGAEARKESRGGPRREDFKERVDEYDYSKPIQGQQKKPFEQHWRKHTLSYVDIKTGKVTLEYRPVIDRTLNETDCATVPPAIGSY
T1 sequence (Q3T189 29-280): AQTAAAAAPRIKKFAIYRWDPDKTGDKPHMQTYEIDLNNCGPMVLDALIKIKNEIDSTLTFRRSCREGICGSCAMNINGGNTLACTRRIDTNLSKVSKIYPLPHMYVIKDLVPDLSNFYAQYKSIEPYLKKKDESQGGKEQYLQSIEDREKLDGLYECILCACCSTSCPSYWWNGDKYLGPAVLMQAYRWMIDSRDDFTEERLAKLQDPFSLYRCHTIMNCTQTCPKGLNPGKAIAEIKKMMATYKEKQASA
T1 sequence (P35720 30-169): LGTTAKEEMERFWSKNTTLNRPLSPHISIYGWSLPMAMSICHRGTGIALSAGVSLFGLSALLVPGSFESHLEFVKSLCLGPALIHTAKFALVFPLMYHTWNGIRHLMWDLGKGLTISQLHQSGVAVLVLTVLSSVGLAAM
T1 sequence (Q95123 56-158): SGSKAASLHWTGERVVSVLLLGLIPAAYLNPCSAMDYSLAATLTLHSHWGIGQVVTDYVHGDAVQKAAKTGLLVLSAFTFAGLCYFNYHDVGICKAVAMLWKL

As to `CCCCCC[C@H]1C(=O)O[C@H](C)[C@H](NC(=O)c2cccc(NC=O)c2O)C(=O)O[C@@H](C)[C@@H]1OC(=O)CC(C)C` [Antimycin A, reference compound], the “oxygen consumption of PANC-1 cells” value in the data set with PANC-1 cells was “inhibited the oxygen consumption”. The IC50 in data set [1] (Glucose Deficient Medium) came to 0.0003 µM. For the same molecule, the “S.I. (Selective index)” value in data set [1] is recorded as 960,000.
For the molecule `N#CC(C#N)=NNc1cccc(Cl)c1` [CCCP, carbonyl cyanide m-chlorophenylhydrazone], the “oxygen consumption of PANC-1 cells” value in the data set with PANC-1 cells is “showed the opposite effect to antimycin A”.
`COc1ccc(C2SSC34CC5(O)C(Cl)C=CC(O)C5ON3C(=O)C2NC4=O)c(O)c1OC` (stereo not drawn) [Compound 1, DC1149B]: the “levels of Akt and phosphorylated Akt” value in data set [2] was “reduced the levels of Akt and phosphorylated Akt in the nutrient-starved cells in a dose-dependent manner”. Also, the IC50 in data set [3] is > 30 µM; at mitochondrial Complex I, > 30 µM; at mitochondrial Complex V it was > 30 µM; against mitochondrial Complex IV, > 30 µM; in data set [4], 5.1 µM; in data set [5] (read-out: IC50 cytotoxic activity HeLa), 97.1 µM. Also, the IC50 in [1] (General Glucose Medium) is 710 µM; in data set [1] (Glucose Deficient Medium), 0.02 µM; at mitochondrial Complex II, 19 µM; in data set [6] (read-out: IC50 cytotoxic activity PC12), 42.4 µM. The “expression of GRP78” value in the data set on GRP78 is “decreased the expression of GRP78 in the nutrient-starved cells to the basal level”. Further, in the data set on PANC-1 cells, the “oxygen consumption of PANC-1 cells” value is listed as “inhibited the oxygen consumption”. In addition, in data set [5], the “IC50 cytotoxic activity HeLa” value was 50.1 µg/mL (≈ 96.9 µM). Moreover, the “IC50 cytotoxic activity PC12” value in [6] was 21.9 µg/mL (≈ 42.4 µM).
`COc1ccc2cc(NC(=O)C3=NO[C@H]4[C@H](O)C=C[C@@H](O)[C@@]4(O)C3)c(=O)oc2c1OC` [Compound 2, trichodermamide A]: the IC50 in data set [1] (General Glucose Medium) is > 1000 µM. In addition, in [1] (Glucose Deficient Medium), the IC50 turned out to be 270 µM and the “IC50 Glucose (−)” value is “very weak”. For the same molecule, in [1], the “S.I. (Selective index)” value is > 3.7.
In the case of `COc1ccc2cc(NC(=O)C34CC5(O)C(C=CC(O)C5ON3)S4)c(=O)oc2c1OC` (stereo not drawn) [Compound 3, aspergillazine A], the IC50 in data set [1] (General Glucose Medium) and in data set [1] (Glucose Deficient Medium) was > 1000 µM throughout. Besides, the “IC50 Glucose (−)” value in data set [1] (Glucose Deficient Medium) is reported as “very weak”.
Consider `O=C(CC(=O)C(F)(F)F)c1cccs1` [thenoyltrifluoroacetone, reference compound], for which, on mitochondrial Complex II, it took 65 µM to reach half-maximal inhibition (IC50).

A word on the IC50: it is the concentration that gives 50% inhibition.

Source of the values: article PMC7946679, “Selective cytotoxicity of epidithiodiketopiperazine DC1149B, produced by marine-derived Trichoderma lixii on the cancer cells adapted to glucose starvation” (Journal of Natural Medicines, 2019).
